Experimental data as given in paper doi:10.1101/2021.09.30.462449v1 (biorxiv, 2021).

What was measured:
CAMK1 (CaMK1) = CAMK1 (CaMK1) (Homo sapiens, UniProt Q14012); experiment: Adapta universal kinase assay; format: biochemical
ABL1 Q252H = ABL1 Q252H (Homo sapiens, UniProt P00519, Q252H); experiment: biochemical; settings: read-out: % inhibition mean (Lanthascreen)
AMPK (A1/B1/G2) = AMPK (A1/B1/G2) (Homo sapiens, UniProt Q13131); experiment: biochemical; settings: read-out: % inhibition mean (Lanthascreen)
AMPK (A2/B2/G1) = AMPK (A2/B2/G1) (Homo sapiens, UniProt P54646); experiment: biochemical; settings: read-out: % inhibition mean (Lanthascreen)
KIT T670E = KIT T670E (Homo sapiens, UniProt P10721, T670E); experiment: biochemical; settings: read-out: % inhibition mean (Lanthascreen)
[1] = target: MAP2K6 (MKK6) S207E T211E (Homo sapiens, UniProt P52564, S207E/T211E); experiment: biochemical; settings: read-out: % inhibition mean (Lanthascreen)
MAP3K3 (MEKK3) = MAP3K3 (MEKK3) (Homo sapiens, UniProt Q99759); experiment: biochemical; settings: read-out: % inhibition mean (Lanthascreen)
Chain of MAP3K3 (MEKK3) (Q99759 whole entry): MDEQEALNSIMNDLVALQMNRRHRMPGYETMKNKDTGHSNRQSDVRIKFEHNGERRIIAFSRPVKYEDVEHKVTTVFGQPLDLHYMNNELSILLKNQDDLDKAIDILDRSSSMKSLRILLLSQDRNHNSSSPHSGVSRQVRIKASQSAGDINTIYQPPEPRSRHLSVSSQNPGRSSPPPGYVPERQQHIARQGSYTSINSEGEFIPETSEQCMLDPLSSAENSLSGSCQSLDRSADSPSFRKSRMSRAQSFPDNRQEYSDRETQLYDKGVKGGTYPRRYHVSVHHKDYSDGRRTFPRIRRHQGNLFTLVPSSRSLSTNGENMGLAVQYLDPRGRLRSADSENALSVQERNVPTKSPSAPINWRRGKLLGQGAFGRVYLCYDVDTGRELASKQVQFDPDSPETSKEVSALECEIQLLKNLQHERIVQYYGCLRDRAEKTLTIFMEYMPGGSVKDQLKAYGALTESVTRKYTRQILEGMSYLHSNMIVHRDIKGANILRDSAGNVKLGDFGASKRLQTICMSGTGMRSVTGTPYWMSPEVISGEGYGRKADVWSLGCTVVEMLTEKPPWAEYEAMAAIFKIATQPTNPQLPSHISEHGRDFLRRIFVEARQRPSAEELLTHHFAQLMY

MET D1228H = MET D1228H (Homo sapiens, UniProt P08581, D1228H); experiment: biochemical; settings: read-out: % inhibition mean (Lanthascreen)
NLK = NLK (Homo sapiens, UniProt Q9UBE8); experiment: biochemical; settings: read-out: % inhibition mean (Lanthascreen)
PLK4 = PLK4 (Homo sapiens, UniProt O00444); experiment: biochemical; settings: read-out: % inhibition mean (Lanthascreen)
Chain of PLK4 (O00444 whole entry): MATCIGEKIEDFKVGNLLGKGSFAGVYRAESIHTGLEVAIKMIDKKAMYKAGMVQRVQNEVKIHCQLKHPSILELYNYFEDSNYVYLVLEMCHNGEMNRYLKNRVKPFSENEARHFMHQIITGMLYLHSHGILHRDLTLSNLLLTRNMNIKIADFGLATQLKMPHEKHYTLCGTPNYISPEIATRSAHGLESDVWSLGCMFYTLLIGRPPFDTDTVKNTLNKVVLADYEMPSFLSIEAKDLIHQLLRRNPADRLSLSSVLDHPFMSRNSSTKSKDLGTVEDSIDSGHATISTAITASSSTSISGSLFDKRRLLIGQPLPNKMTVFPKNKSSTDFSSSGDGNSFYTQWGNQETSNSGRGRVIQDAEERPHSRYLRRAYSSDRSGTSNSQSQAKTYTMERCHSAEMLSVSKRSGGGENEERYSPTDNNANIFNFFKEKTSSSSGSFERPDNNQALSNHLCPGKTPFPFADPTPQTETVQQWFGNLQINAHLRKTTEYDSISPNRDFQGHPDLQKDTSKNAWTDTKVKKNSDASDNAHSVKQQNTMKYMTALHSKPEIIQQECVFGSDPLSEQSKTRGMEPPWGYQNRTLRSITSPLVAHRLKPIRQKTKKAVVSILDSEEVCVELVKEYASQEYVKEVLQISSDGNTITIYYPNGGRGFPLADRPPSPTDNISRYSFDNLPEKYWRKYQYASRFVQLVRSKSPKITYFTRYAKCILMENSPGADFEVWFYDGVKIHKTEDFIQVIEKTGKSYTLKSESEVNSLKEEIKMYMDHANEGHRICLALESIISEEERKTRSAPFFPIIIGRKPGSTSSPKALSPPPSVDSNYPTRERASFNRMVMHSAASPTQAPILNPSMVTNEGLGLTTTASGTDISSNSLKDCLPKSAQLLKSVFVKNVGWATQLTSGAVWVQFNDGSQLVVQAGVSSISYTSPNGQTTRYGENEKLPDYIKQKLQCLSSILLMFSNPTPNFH

RIPK3 = RIPK3 (Homo sapiens, UniProt Q9Y572); experiment: biochemical; settings: read-out: % inhibition mean (Lanthascreen)
TNK2 (ACK) = TNK2 (ACK) (Homo sapiens, UniProt Q07912); experiment: biochemical; settings: read-out: % inhibition mean (Lanthascreen)
TTK = TTK (Homo sapiens, UniProt P33981); experiment: biochemical; settings: read-out: % inhibition mean (Lanthascreen)
ULK2 = ULK2 (Homo sapiens, UniProt Q8IYT8); experiment: biochemical; settings: read-out: % inhibition mean (Lanthascreen)
WNK2 = WNK2 (Homo sapiens, UniProt Q9Y3S1); experiment: biochemical; settings: read-out: % inhibition mean (Lanthascreen)
Chain of WNK2 (Q9Y3S1 whole entry): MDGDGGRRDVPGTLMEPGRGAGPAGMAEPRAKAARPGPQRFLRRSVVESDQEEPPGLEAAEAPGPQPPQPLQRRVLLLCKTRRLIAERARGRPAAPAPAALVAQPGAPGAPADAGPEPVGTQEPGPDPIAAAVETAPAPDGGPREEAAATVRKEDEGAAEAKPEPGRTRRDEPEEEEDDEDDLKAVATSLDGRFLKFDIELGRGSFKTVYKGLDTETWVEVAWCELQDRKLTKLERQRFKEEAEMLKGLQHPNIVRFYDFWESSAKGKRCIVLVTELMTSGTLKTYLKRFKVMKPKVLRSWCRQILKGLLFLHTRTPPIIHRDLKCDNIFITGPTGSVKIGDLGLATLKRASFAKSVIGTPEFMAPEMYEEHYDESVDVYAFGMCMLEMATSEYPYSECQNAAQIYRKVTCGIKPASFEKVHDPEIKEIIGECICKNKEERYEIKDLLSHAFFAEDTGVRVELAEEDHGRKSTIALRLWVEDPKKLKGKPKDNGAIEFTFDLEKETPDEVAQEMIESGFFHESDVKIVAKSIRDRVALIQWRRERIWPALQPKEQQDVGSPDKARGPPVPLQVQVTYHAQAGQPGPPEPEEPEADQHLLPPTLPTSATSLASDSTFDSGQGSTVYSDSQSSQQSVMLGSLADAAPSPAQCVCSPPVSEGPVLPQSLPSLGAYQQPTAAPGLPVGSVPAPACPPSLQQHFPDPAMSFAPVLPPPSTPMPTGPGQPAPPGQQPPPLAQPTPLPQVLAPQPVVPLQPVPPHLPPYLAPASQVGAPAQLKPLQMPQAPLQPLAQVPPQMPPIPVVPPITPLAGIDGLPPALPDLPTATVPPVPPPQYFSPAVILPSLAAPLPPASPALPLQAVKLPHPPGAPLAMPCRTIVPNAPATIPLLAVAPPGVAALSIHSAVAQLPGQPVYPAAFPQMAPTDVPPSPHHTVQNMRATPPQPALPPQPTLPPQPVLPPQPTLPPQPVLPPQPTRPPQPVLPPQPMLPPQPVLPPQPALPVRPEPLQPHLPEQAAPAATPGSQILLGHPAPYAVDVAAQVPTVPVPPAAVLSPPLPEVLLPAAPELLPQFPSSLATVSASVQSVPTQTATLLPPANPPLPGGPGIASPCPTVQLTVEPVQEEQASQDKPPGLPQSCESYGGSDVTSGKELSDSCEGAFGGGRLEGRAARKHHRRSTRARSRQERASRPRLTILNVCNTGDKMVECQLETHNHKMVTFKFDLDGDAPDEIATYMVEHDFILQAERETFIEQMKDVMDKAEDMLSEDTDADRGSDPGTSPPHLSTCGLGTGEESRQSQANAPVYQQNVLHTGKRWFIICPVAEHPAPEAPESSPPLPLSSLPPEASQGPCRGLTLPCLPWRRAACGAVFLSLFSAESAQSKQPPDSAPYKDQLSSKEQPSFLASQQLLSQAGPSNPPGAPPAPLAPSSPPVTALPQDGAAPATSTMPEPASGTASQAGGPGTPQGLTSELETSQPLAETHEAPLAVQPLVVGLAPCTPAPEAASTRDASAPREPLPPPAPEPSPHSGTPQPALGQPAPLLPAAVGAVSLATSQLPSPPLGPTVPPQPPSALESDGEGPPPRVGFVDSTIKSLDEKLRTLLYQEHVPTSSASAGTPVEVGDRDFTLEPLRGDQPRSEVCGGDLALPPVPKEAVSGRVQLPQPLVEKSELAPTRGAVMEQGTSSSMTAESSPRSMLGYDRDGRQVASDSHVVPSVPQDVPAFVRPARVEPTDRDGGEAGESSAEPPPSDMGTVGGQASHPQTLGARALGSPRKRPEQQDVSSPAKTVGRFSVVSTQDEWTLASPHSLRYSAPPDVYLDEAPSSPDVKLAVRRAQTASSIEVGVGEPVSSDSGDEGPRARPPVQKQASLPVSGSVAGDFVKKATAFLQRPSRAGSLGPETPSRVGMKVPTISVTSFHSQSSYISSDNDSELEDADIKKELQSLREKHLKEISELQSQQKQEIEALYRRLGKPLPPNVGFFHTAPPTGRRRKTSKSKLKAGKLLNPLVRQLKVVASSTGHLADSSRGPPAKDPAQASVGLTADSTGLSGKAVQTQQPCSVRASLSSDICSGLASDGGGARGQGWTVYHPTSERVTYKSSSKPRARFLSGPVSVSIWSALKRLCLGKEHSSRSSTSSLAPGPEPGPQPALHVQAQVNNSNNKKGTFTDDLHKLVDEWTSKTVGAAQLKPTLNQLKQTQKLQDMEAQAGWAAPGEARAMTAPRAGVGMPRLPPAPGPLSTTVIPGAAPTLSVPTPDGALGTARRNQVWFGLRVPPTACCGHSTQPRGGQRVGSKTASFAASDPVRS

ALK = ALK (Homo sapiens, UniProt Q9UM73); experiment: biochemical; settings: read-out: % inhibition mean (Z'Lyte)
AMPK (A2/B1/G3) = AMPK (A2/B1/G3) (Homo sapiens, UniProt P54646); experiment: biochemical; settings: read-out: % inhibition mean (Z'Lyte)
BRAF = BRAF (Homo sapiens, UniProt P15056); experiment: biochemical; settings: read-out: % inhibition mean (Z'Lyte)
EPHA2 = EPHA2 (Homo sapiens, UniProt P29317); experiment: biochemical; settings: read-out: % inhibition mean (Z'Lyte)
Chain of EPHA2 (P29317 whole entry): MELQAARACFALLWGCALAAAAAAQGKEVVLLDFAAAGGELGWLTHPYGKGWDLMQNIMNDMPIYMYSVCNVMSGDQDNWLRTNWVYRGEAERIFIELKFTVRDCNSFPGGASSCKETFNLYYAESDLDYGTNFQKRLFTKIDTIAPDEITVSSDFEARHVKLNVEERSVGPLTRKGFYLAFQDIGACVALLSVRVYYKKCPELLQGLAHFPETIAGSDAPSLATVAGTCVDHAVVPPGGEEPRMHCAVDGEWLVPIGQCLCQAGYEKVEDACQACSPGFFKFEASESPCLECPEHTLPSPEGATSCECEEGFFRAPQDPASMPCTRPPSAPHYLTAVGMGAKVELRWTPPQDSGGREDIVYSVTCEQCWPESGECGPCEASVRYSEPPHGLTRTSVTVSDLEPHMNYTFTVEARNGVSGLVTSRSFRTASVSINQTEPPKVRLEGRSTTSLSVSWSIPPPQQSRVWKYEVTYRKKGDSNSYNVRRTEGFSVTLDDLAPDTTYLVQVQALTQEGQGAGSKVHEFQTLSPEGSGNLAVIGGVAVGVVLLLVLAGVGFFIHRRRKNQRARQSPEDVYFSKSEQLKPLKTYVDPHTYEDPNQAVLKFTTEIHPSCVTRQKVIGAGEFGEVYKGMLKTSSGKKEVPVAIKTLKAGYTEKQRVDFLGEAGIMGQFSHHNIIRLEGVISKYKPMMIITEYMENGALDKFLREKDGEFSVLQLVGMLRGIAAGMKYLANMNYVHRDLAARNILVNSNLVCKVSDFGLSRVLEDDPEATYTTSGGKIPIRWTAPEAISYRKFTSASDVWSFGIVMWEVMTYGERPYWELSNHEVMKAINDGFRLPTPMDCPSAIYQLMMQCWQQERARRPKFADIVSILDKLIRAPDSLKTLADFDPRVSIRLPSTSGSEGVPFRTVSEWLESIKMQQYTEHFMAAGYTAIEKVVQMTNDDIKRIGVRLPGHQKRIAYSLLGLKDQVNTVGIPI

FGFR1 = FGFR1 (Homo sapiens, UniProt P11362); experiment: biochemical; settings: read-out: % inhibition mean (Z'Lyte)
INSRR (IRR) = INSRR (IRR) (Homo sapiens, UniProt P14616); experiment: biochemical; settings: read-out: % inhibition mean (Z'Lyte)
KIT V559D = KIT V559D (Homo sapiens, UniProt P10721, V559D); experiment: biochemical; settings: read-out: % inhibition mean (Z'Lyte)
MAP2K1 (MEK1) = MAP2K1 (MEK1) (Homo sapiens, UniProt Q02750); experiment: biochemical; settings: read-out: % inhibition mean (Z'Lyte)
[2] = target: MAPK14 (p38 alpha) Direct (Homo sapiens, UniProt Q16539); experiment: biochemical; settings: read-out: % inhibition mean (Z'Lyte)
MAPK9 (JNK2) = MAPK9 (JNK2) (Homo sapiens, UniProt P45984); experiment: biochemical; settings: read-out: % inhibition mean (Z'Lyte)
MARK1 (MARK) = MARK1 (MARK) (Homo sapiens, UniProt Q9P0L2); experiment: biochemical; settings: read-out: % inhibition mean (Z'Lyte)
PIM2 = PIM2 (Homo sapiens, UniProt Q9P1W9); experiment: biochemical; settings: read-out: % inhibition mean (Z'Lyte)
SGK2 = SGK2 (Homo sapiens, UniProt Q9HBY8); experiment: biochemical; settings: read-out: % inhibition mean (Z'Lyte)
ZAP70 = ZAP70 (Homo sapiens, UniProt P43403); experiment: biochemical; settings: read-out: % inhibition mean (Z'Lyte)

**Q.** For COc1ccc2nc3cc(Cl)ccc3c(Nc3cc(CN4CCCC4)c(O)c(CN4CCCC4)c3)c2n1 [Pyronaridine, 4-[(7-Chloro-2-methoxybenzo[b][1,5]naphthyridin-10-yl)amino]-2,6-bis(1-pyrrolidinylmethyl)phenol phosphate (1:4)], which IC50 (CAMK1 (CaMK1)) is on record?
**A.** Its IC50 is 2400 nM.

**Q.** What about the inhibition at 1 µM (ABL1 Q252H) of the same compound?
**A.** Its inhibition at 1 µM is -10%.

**Q.** What about the inhibition at 1 µM (AMPK (A1/B1/G2)) of the same compound?
**A.** Its inhibition at 1 µM is -7%.

**Q.** And the inhibition at 1 µM (AMPK (A2/B2/G1))?
**A.** Its inhibition at 1 µM is 6%.

**Q.** What about the inhibition at 1 µM (KIT T670E) of the same compound?
**A.** Its inhibition at 1 µM is 1%.

**Q.** And the inhibition at 1 µM [1]?
**A.** Its inhibition at 1 µM is 10%.

**Q.** What about the inhibition at 1 µM (MAP3K3 (MEKK3)) of the same compound?
**A.** The inhibition at 1 µM was -3%.

**Q.** What about the inhibition at 1 µM (MET D1228H) of the same compound?
**A.** The inhibition at 1 µM was 3%.

**Q.** What about the inhibition at 1 µM (NLK) of the same compound?
**A.** Its inhibition at 1 µM is 8%.

**Q.** What about the inhibition at 1 µM (PLK4) of the same compound?
**A.** Its inhibition at 1 µM is 6%.

**Q.** And the inhibition at 1 µM (RIPK3)?
**A.** Its inhibition at 1 µM is -7%.

**Q.** And the inhibition at 1 µM (TNK2 (ACK))?
**A.** The inhibition at 1 µM was 1%.

**Q.** What about the inhibition at 1 µM (TTK) of the same compound?
**A.** The inhibition at 1 µM was 4%.

**Q.** And the inhibition at 1 µM (ULK2)?
**A.** The inhibition at 1 µM was 2%.

**Q.** What about the inhibition at 1 µM (WNK2) of the same compound?
**A.** The inhibition at 1 µM was 4%.

**Q.** What about the inhibition at 1 µM (ALK) of the same compound?
**A.** The inhibition at 1 µM was -1%.

**Q.** What about the inhibition at 1 µM (AMPK (A2/B1/G3)) of the same compound?
**A.** The inhibition at 1 µM was 2%.

**Q.** What about the inhibition at 1 µM (BRAF) of the same compound?
**A.** The inhibition at 1 µM was 4%.

**Q.** And the inhibition at 1 µM (EPHA2)?
**A.** The inhibition at 1 µM was 5%.

**Q.** What about the inhibition at 1 µM (FGFR1) of the same compound?
**A.** Its inhibition at 1 µM is -5%.

**Q.** What about the inhibition at 1 µM (INSRR (IRR)) of the same compound?
**A.** Its inhibition at 1 µM is -1%.

**Q.** What about the inhibition at 1 µM (KIT V559D) of the same compound?
**A.** Its inhibition at 1 µM is -1%.

**Q.** And the inhibition at 1 µM (MAP2K1 (MEK1))?
**A.** The inhibition at 1 µM was -2%.

**Q.** And the inhibition at 1 µM [2]?
**A.** The inhibition at 1 µM was 3%.

**Q.** And the inhibition at 1 µM (MAPK9 (JNK2))?
**A.** Its inhibition at 1 µM is -15%.

**Q.** And the inhibition at 1 µM (MARK1 (MARK))?
**A.** The inhibition at 1 µM was -10%.

**Q.** And the inhibition at 1 µM (PIM2)?
**A.** Its inhibition at 1 µM is -4%.

**Q.** And the inhibition at 1 µM (SGK2)?
**A.** Its inhibition at 1 µM is 3%.

**Q.** What about the inhibition at 1 µM (ZAP70) of the same compound?
**A.** Its inhibition at 1 µM is 4%.
